According to PubChem BioAssay AID2060606 (Molecular Pharmacology Branch, DTP, NCI, 2025):

System: 922993-354-T-J3-PDC complex spheroids, viability, % test/control
Test: Anticancer human tumor 922993-354-T-J3-PDC patient-derived endometrial carcinoma cell line growth inhibition [CLK]
Settings: for IC50: curve of first compound; for viability, T/C: stronger effect = lower value
In short: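 Multi-cell-type spheroids combined patient-derived tumor cells with HUVEC endothelial cells and human mesenchymal stem cells. Paired agents were dosed in half-log steps down from about clinical Cmax, or from 10 microM where Cmax was unknown.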

[1] = second compound 0.0316 µM, first compound 0.0316 µM
[2] = second compound 0.0316 µM, first compound 0.1 µM
[3] = second compound 0.0316 µM, first compound 0.316 µM
[4] = second compound 0.0316 µM, first compound 1 µM
[5] = second compound 0.1 µM, first compound 0.0316 µM
[6] = second compound 0.1 µM, first compound 0.1 µM
[7] = second compound 0.1 µM, first compound 0.316 µM
[8] = second compound 0.1 µM, first compound 1 µM
[9] = second compound 0.316 µM, first compound 0.0316 µM
[10] = second compound 0.316 µM, first compound 0.1 µM
[11] = second compound 0.316 µM, first compound 0.316 µM
[12] = second compound 0.316 µM, first compound 1 µM
[13] = second compound 1 µM, first compound 0.0316 µM
[14] = second compound 1 µM, first compound 0.1 µM
[15] = second compound 1 µM, first compound 0.316 µM
[16] = second compound 1 µM, first compound 1 µM
[17] = second compound 3.16 µM, first compound 0.0316 µM
[18] = second compound 3.16 µM, first compound 0.1 µM
[19] = second compound 3.16 µM, first compound 0.316 µM
[20] = second compound 3.16 µM, first compound 1 µM
[21] = second compound 10 µM, first compound 0.0316 µM
[22] = second compound 10 µM, first compound 0.1 µM
[23] = second compound 10 µM, first compound 0.316 µM
[24] = second compound 10 µM, first compound 1 µM
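Note: spheroids exposed to the agents for 7 days before readout.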

## CC(=O)O[C@H]1C(=O)[C@@]2(C)[C@H]([C@H](OC(=O)c3ccccc3)[C@]3(O)C[C@H](OC(=O)[C@H](O)[C@@H](NC(=O)c4ccccc4)c4ccccc4)C(C)=C1C3(C)C)[C@]1(OC(C)=O)CO[C@@H]1C[C@@H]2O + CN1CCN(c2cc(C(=O)Nc3cc4cc(-c5cnn(C)c5)ccc4cn3)ccn2)CC1
Second compound 0.0316 µM
  IC50: 2880 nM
Second compound 0.1 µM
  IC50: 2370 nM
Second compound 0.316 µM
  IC50: < 31.6 nM
Second compound 1 µM
  IC50: < 31.6 nM
Second compound 3.16 µM
  IC50: < 31.6 nM
Second compound 10 µM
  IC50: < 31.6 nM
[1]
  viability, T/C: 110%
[2]
  viability, T/C: 126%
[3]
  viability, T/C: 91.4%
[4]
  viability, T/C: 95%
Second compound 0.0316 µM, first compound 3.16 µM
  viability, T/C: 43.5%
Second compound 0.0316 µM, first compound 10 µM
  viability, T/C: 36.3%
[5]
  viability, T/C: 94.8%
[6]
  viability, T/C: 100%
[7]
  viability, T/C: 98.3%
[8]
  viability, T/C: 63.1%
Second compound 0.1 µM, first compound 3.16 µM
  viability, T/C: 50.1%
Second compound 0.1 µM, first compound 10 µM
  viability, T/C: 30.3%
[9]
  viability, T/C: 26%
[10]
  viability, T/C: 24.9%
[11]
  viability, T/C: 29.8%
[12]
  viability, T/C: 19.9%
Second compound 0.316 µM, first compound 3.16 µM
  viability, T/C: 16.1%
Second compound 0.316 µM, first compound 10 µM
  viability, T/C: 14.4%
[13]
  viability, T/C: 0.1%
[14]
  viability, T/C: 0.47%
[15]
  viability, T/C: 0.12%
[16]
  viability, T/C: 0.07%
Second compound 1 µM, first compound 3.16 µM
  viability, T/C: 0.06%
Second compound 1 µM, first compound 10 µM
  viability, T/C: 0.07%
[17]
  viability, T/C: 0.1%
[18]
  viability, T/C: 0.79%
[19]
  viability, T/C: 0.18%
[20]
  viability, T/C: 0.67%
Second compound 3.16 µM, first compound 3.16 µM
  viability, T/C: 0.76%
Second compound 3.16 µM, first compound 10 µM
  viability, T/C: 0.11%
[21]
  viability, T/C: 0.12%
[22]
  viability, T/C: 0.14%
[23]
  viability, T/C: 0.2%
[24]
  viability, T/C: 0.16%
Second compound 10 µM, first compound 3.16 µM
  viability, T/C: 1.02%
Second compound 10 µM, first compound 10 µM
  viability, T/C: 2.94%

## CCc1c2c(nc3ccc(O)cc13)-c1cc3c(c(=O)n1C2)COC(=O)[C@]3(O)CC + CN1CCN(c2cc(C(=O)Nc3cc4cc(-c5cnn(C)c5)ccc4cn3)ccn2)CC1
Second compound 0.0316 µM
  IC50: 16.6 nM
Second compound 0.1 µM
  IC50: 15.2 nM
Second compound 0.316 µM
  IC50: < 3.16 nM
Second compound 1 µM
  IC50: < 3.16 nM
Second compound 3.16 µM
  IC50: < 3.16 nM
Second compound 10 µM
  IC50: < 3.16 nM
Second compound 0.0316 µM, first compound 0.00316 µM
  viability, T/C: 96.4%
Second compound 0.0316 µM, first compound 0.01 µM
  viability, T/C: 75.1%
[1]
  viability, T/C: 16.3%
[2]
  viability, T/C: 16.1%
[3]
  viability, T/C: 16.8%
[4]
  viability, T/C: 24.9%
Second compound 0.1 µM, first compound 0.00316 µM
  viability, T/C: 84.3%
Second compound 0.1 µM, first compound 0.01 µM
  viability, T/C: 66.9%
[5]
  viability, T/C: 14.1%
[6]
  viability, T/C: 18.8%
[7]
  viability, T/C: 16.2%
[8]
  viability, T/C: 32.3%
Second compound 0.316 µM, first compound 0.00316 µM
  viability, T/C: 27.2%
Second compound 0.316 µM, first compound 0.01 µM
  viability, T/C: 19.2%
[9]
  viability, T/C: 9.9%
[10]
  viability, T/C: 9.85%
[11]
  viability, T/C: 18.8%
[12]
  viability, T/C: 15.8%
Second compound 1 µM, first compound 0.00316 µM
  viability, T/C: 0.1%
Second compound 1 µM, first compound 0.01 µM
  viability, T/C: 0.13%
[13]
  viability, T/C: 1.37%
[14]
  viability, T/C: 0.07%
[15]
  viability, T/C: 0.87%
[16]
  viability, T/C: 0.33%
Second compound 3.16 µM, first compound 0.00316 µM
  viability, T/C: 0.08%
Second compound 3.16 µM, first compound 0.01 µM
  viability, T/C: 0.17%
[17]
  viability, T/C: 0.99%
[18]
  viability, T/C: 1.34%
[19]
  viability, T/C: 1%
[20]
  viability, T/C: 2.82%
Second compound 10 µM, first compound 0.00316 µM
  viability, T/C: 0.12%
Second compound 10 µM, first compound 0.01 µM
  viability, T/C: 0.14%
[21]
  viability, T/C: 0.83%
[22]
  viability, T/C: 0.18%
[23]
  viability, T/C: 0.59%
[24]
  viability, T/C: 2.79%
